In patent US9302999B2, “Substituted triazoles as herbicides” (E. I. DU PONT DE NEMOURS AND COMPANY, priority 2012, dated 2016):

How the values were obtained:
Type in all cases: in vivo
[1] = test system: pigweed (Amaranthus retroflexus); assay: Test D pre-/postemergence: pigweed
Text: (§1) Seeds of plant species selected from bluegrass (annual bluegrass, Poa annua), blackgrass (Alopecurus myosuroides), canarygrass (Phalaris minor), chickweed (common chickweed, Stellaria media), galium (catchweed bedstraw, Galium aparine), bromegrass, downy (downy bromegrass, Bromus tectorum), field poppy (Papaver rhoeas), field violet (Viola arvensis), foxtail, green (green foxtail, Setaria viridis), deadnettle (henbit deadnettle, Lamium amplexicaule), ryegrass, Italian (Italian ryegrass, Lolium multiflorum), kochia (Kochia scoparia), lambsquarters (Chenopodium album), oilseed rape (Brassica napus), pigweed (Amaranthus retroflexus), Russian thistle (Salsola iberica), chamomile (scentless chamomile, Matricaria inodora), speedwell (bird's-eye speedwell, Veronica persica), barley, spring (spring barley, Hordeum vulgare), wheat, spring (spring wheat, Triticum aestivum), buckwheat, wild (wild buckwheat, Polygonum convolvulus), mustard, wild (wild mustard, Sinapis arvensis), oat, wild (wild oat, Avena fatua), radish, wild (wild radish, Raphanus raphanistrum), windgrass (Apera spica-venti), barley, winter (winter barley, Hordeum vulgare), and wheat, winter (winter wheat, Triticum aestivum) were planted into a silt loam soil and treated preemergence with test chemicals formulated in a non-phytotoxic solvent mixture which included a surfactant. At the same time, these same crop and weed species were planted in pots containing the planting medium comprising spaghnum peat moss, vermiculite, wetting agent and starter nutrients and treated with postemergence applications of the test chemicals formulated in the same manner. Plants ranged in height from 2 to 18 cm (1- to 4-leaf stage).
(§2) Treated plants and controls were maintained in a controlled growth environment for 14 to 21 days after which time all species were compared to controls and visually evaluated. Plant response ratings, summarized in Table D, are based on a scale of 0 to 100 where 0 is no effect and 100 is complete control. A dash (-) response means no test result.

[2] = test system: buckwheat, wild (wild buckwheat, Polygonum convolvulus); assay: Test D pre-/postemergence: buckwheat, wild
Text: as §1, §2

[3] = test system: wheat, winter (winter wheat, Triticum aestivum); assay: Test D pre-/postemergence: wheat, winter
Text: as §1, §2

[4] = test system: bromegrass, downy (downy bromegrass, Bromus tectorum); assay: Test D pre-/postemergence: bromegrass, downy
Text: as §1, §2

[5] = Postemergence, 31 g ai/ha, scale 0 to 100 (0 no effect, 100 complete control)
[6] = Postemergence, 62 g ai/ha, scale 0 to 100 (0 no effect, 100 complete control)
[7] = Postemergence, 125 g ai/ha, scale 0 to 100, 0 no effect, 100 complete control
[8] = Postemergence, 250 g ai/ha, scale 0 to 100 (0 no effect, 100 complete control)
[9] = Postemergence, 16 g ai/ha, scale 0 to 100
[10] = Preemergence, 31 g ai/ha, scale 0 to 100, 0 no effect, 100 complete control
[11] = Preemergence, 62 g ai/ha, scale 0 to 100
[12] = Preemergence, 125 g ai/ha, scale 0 to 100
[13] = Preemergence, 250 g ai/ha, scale 0 to 100
[14] = Preemergence, 16 g ai/ha, scale 0 to 100, 0 no effect, 100 complete control

| SMILES | Plant response rating: Pigweed [1, 5] | Plant response rating: Pigweed [1, 6] | Plant response rating: Pigweed [1, 7] | Plant response rating: Pigweed [1, 8] | Plant response rating, Pigweed [1, 9] | Plant response rating, Pigweed [1, 10] | Plant response rating, Pigweed [1, 11] | Plant response rating, Pigweed [1, 12] | Plant response rating: Buckwheat, Wild [2, 5] | Plant response rating: Buckwheat, Wild [2, 6] | Plant response rating: Buckwheat, Wild [2, 7] | Plant response rating, Buckwheat, Wild [2, 9] | Plant response rating: Wheat, Winter [3, 5] | Plant response rating: Wheat, Winter [3, 6] | Plant response rating: Wheat, Winter [3, 7] | Plant response rating, Wheat, Winter [3, 9] | Plant response rating: Bromegrass, Downy [4, 5] | Plant response rating: Bromegrass, Downy [4, 6] | Plant response rating: Bromegrass, Downy [4, 7] | Plant response rating, Bromegrass, Downy [4, 9] | also measured |
| --- | --- | --- | --- | --- | --- | --- | --- | --- | --- | --- | --- | --- | --- | --- | --- | --- | --- | --- | --- | --- | --- |
| COc1nn(-c2ccc(C(F)(F)F)cc2)nc1Cc1ccnc(C(F)(F)F)c1 [Compound 15, 4-[[5-methoxy-2-[4-(trifluoromethyl)phenyl]-2H-1,2,3-triazol-4-yl]methyl]-2-(trifluoromethyl)pyridine] | 80 | 80 | 100 | 100 | 80 | 20 | 70 | 98 | 30 | 30 | 70 | 0 | 10 | 15 | 25 | 5 | 10 | 10 | 20 | 5 | Plant response rating, Pigweed [1, 13]: 100; Plant response rating: Buckwheat, Wild [2, 8]: 100; Plant response rating, Buckwheat, Wild [2, 10]: 0; Plant response rating, Buckwheat, Wild [2, 11]: 100; Plant response rating, Buckwheat, Wild [2, 12]: 100; Plant response rating, Buckwheat, Wild [2, 13]: 100; Plant response rating: Wheat, Winter [3, 8]: 35; Plant response rating, Wheat, Winter [3, 10]: 0; Plant response rating, Wheat, Winter [3, 11]: 0; Plant response rating, Wheat, Winter [3, 12]: 0; Plant response rating, Wheat, Winter [3, 13]: 5; Plant response rating: Bromegrass, Downy [4, 8]: 40; Plant response rating, Bromegrass, Downy [4, 10]: 0; Plant response rating, Bromegrass, Downy [4, 11]: 0; Plant response rating, Bromegrass, Downy [4, 12]: 0; Plant response rating, Bromegrass, Downy [4, 13]: 40 |
| Cc1nn(-c2ccc(C(F)(F)F)cn2)nc1Cc1cccc(C(F)(F)F)c1 [Compound 106] | 50 | 60 | 90 | 90 | 10 | 0 | 0 | 20 | 0 | 10 | 10 | 0 | 5 | 5 | 5 | 5 | 0 | 10 | 15 | 0 | Plant response rating, Pigweed [1, 13]: 40; Plant response rating: Buckwheat, Wild [2, 8]: 100; Plant response rating, Buckwheat, Wild [2, 10]: 50; Plant response rating, Buckwheat, Wild [2, 11]: 100; Plant response rating, Buckwheat, Wild [2, 12]: 100; Plant response rating, Buckwheat, Wild [2, 13]: 100; Plant response rating: Wheat, Winter [3, 8]: 5; Plant response rating, Wheat, Winter [3, 10]: 0; Plant response rating, Wheat, Winter [3, 11]: 0; Plant response rating, Wheat, Winter [3, 12]: 0; Plant response rating, Wheat, Winter [3, 13]: 0; Plant response rating: Bromegrass, Downy [4, 8]: 15; Plant response rating, Bromegrass, Downy [4, 10]: 0; Plant response rating, Bromegrass, Downy [4, 11]: 0; Plant response rating, Bromegrass, Downy [4, 12]: 0; Plant response rating, Bromegrass, Downy [4, 13]: 0 |
| COc1nn(-c2ccc(C(F)(F)F)cc2)nc1Cc1ccnc(C(F)F)c1 [Compound 138] | 95 | 95 | 100 | 100 | 90 | – | – | – | 40 | 50 | 80 | 40 | 20 | 20 | 20 | 10 | 20 | 30 | 40 | 10 | Plant response rating: Buckwheat, Wild [2, 8]: 80; Plant response rating: Wheat, Winter [3, 8]: 25; Plant response rating: Bromegrass, Downy [4, 8]: 50 |
| Cc1nn(-c2ccc(F)c(C(F)(F)F)c2)nc1Cc1ccnc(C(F)(F)F)c1 [Compound 156] | 90 | 90 | 95 | – | 85 | 85 | 100 | 100 | 75 | 80 | 85 | 70 | 15 | 15 | 20 | 10 | 10 | 15 | 35 | 10 | Plant response rating, Pigweed [1, 14]: 50; Plant response rating, Buckwheat, Wild [2, 14]: 0; Plant response rating, Buckwheat, Wild [2, 10]: 50; Plant response rating, Buckwheat, Wild [2, 11]: 65; Plant response rating, Buckwheat, Wild [2, 12]: 100; Plant response rating, Wheat, Winter [3, 14]: 0; Plant response rating, Wheat, Winter [3, 10]: 0; Plant response rating, Wheat, Winter [3, 11]: 0; Plant response rating, Wheat, Winter [3, 12]: 5; Plant response rating, Bromegrass, Downy [4, 14]: 0; Plant response rating, Bromegrass, Downy [4, 10]: 5; Plant response rating, Bromegrass, Downy [4, 11]: 20; Plant response rating, Bromegrass, Downy [4, 12]: 95 |
